# pIC50: −log10 of the molar value.
# Target: cAMP and cAMP-inhibited cGMP 3',5'-cyclic phosphodiesterase 10A (Homo sapiens, UniProt Q9Y233)
# Test: PDE10A assay
# Experimental: Compounds were diluted in 20 mM HEPES/NaOH (pH 7.5), 10 mM MgCl2 and 0.05 mg/ml bovine serum albumin. A fixed amount of 2 ng/well human PDE10A enzyme was added and incubated at room temperature for 15 min under agitation. The reaction was started by the addition of the substrate cocktail [3H]cGMP (Perkin Elmer NET337001MC, S.A. 13.5 Ci/mmol) / cGMP at a final concentration of 50 nM and incubated for an additional 15 min. The reaction was stopped by the addition of 0.5 mg/well of Y-Si SPA beads. The plates were shaken for 1 h, followed by a brief centrifugation (170 g for 1 min). The radioactivity bound to the beads was estimated using a TopCount (Perkin-Elmer). For the determination of IC50 values, a four parameters logistics equation was used. pIC50 is defined as − log10(IC50).
row,pIC50,Structure (SMILES)
1,9.35,"Cn1c(Cl)nc(C(=O)N2CCC2)c1C(=O)Nc1ccn2nc(-c3ccccc3)nc2c1 [Roche-Dataset for PDE10A, Compound 115]"
2,9.22,"COc1ccccc1-c1nc2cc(NC(=O)c3c(C(=O)N4CCC4)cnn3C)ccn2n1 [Roche-Dataset for PDE10A, Compound 120]"
3,8.40,"Cn1ncc(C(=O)N(CCO)CCO)c1C(=O)Nc1ccn2nc(-c3ccccc3)nc2c1 [Roche-Dataset for PDE10A, Compound 125]"
4,5.87,"O=C(Nc1ccn2nc(-c3ccccc3)nc2c1)c1c(C(=O)N2CCC2)cnn1CCF [Roche-Dataset for PDE10A, Compound 131]"
5,7.32,"O=C(Nc1ccn2nc(-c3ccccc3)nc2c1)c1cc(Cl)nc(N2CCCC2)c1 [Roche-Dataset for PDE10A, Compound 132]"
6,9.15,"Cn1ncc(C(=O)N2CCC2)c1C(=O)Nc1cn(-c2ccc3ccccc3n2)cn1 [Roche-Dataset for PDE10A, Compound 137]"
7,7.60,"COC1CN(C(=O)c2cnn(C)c2C(=O)Nc2ccn3nc(-c4ccccc4)nc3c2)C1 [Roche-Dataset for PDE10A, Compound 139]"
8,8.97,"Cn1ncc(C(=O)N2CCC2)c1C(=O)Nc1ccn2nc(-c3cccc(F)c3)nc2c1 [Roche-Dataset for PDE10A, Compound 140]"
9,8.13,"Cc1cccc(-c2cn3c(n2)C[C@H](NC(=O)c2c(C(=O)N4CCC4)cnn2C)CC3)c1 [Roche-Dataset for PDE10A, Compound 141]"
10,6.04,"COc1cccc(-c2cn3c(n2)C[C@H](NC(=O)c2c(C(=O)N4CCC4)cnn2C)CC3)c1 [Roche-Dataset for PDE10A, Compound 148]"
11,8.96,"COc1cccc(-c2nc3cc(NC(=O)c4c(C(=O)N5CCC5)cnn4C)ccn3n2)n1 [Roche-Dataset for PDE10A, Compound 160]"
12,8.18,"Cn1ncc(C(=O)N2CCC2)c1C(=O)N[C@@H]1CCn2cc(-c3cccc(Cl)c3)nc2C1 [Roche-Dataset for PDE10A, Compound 161]"
13,9.44,"Cn1ncc(C(=O)N2CC(F)C2)c1C(=O)Nc1ccn2nc(-c3ccccc3)nc2c1 [Roche-Dataset for PDE10A, Compound 165]"
14,6.88,"CN(C)c1cc(C(=O)Nc2ccn3nc(-c4ccccc4)nc3c2)cc(Cl)n1 [Roche-Dataset for PDE10A, Compound 167]"
15,6.88,"Cn1ncc(-c2ccccc2)c1C(=O)Nc1ccn2nc(-c3ccccc3)nc2c1 [Roche-Dataset for PDE10A, Compound 172]"
16,7.96,"Cc1c(-c2ccccc2)nc2n1CC[C@@H](NC(=O)c1c(C(=O)N3CCC3)cnn1C)C2 [Roche-Dataset for PDE10A, Compound 173]"
17,9.11,"Cn1ncc(C(=O)N2CCC2)c1C(=O)Nc1ccc2sc(-c3ccccc3)nc2c1 [Roche-Dataset for PDE10A, Compound 174]"

# The remaining lines, values behind:
row,Structure (SMILES),pIC50
1,"Cn1cc(-c2ccccc2)nc1COc1nc(OC2CCOCC2)c2cc(Cl)ccc2n1 [Roche-Dataset for PDE10A, Compound 100]",7.80
2,"O=C(Nc1ccn2nc(-c3ccccc3)nc2c1)c1cc(Cl)nc(NC2CC2)c1 [Roche-Dataset for PDE10A, Compound 101]",8.21
3,"O=C(NCCc1cnc(-c2ccccc2)[nH]1)c1nc(C2CC2)ccc1Nc1cncnc1 [Roche-Dataset for PDE10A, Compound 102]",8.68
4,"Cc1c(C(F)(F)F)nc2ccc(C#Cc3nc(-c4ccccc4)cn3C)nn12 [Roche-Dataset for PDE10A, Compound 106]",8.73
5,"Cn1cc(-c2ccccc2)nc1COc1cc(N2CCOCC2)nc(-c2ccn[nH]2)n1 [Roche-Dataset for PDE10A, Compound 108]",6.43
6,"CN(C(=O)c1cnn(C)c1C(=O)N[C@@H]1CCn2c(nc(-c3ccccc3)c2Cl)C1)C1CC1 [Roche-Dataset for PDE10A, Compound 110]",7.28
7,"COCCN(C)C(=O)c1cnn(C)c1C(=O)N[C@@H]1CCn2cc(-c3ccccc3)nc2C1 [Roche-Dataset for PDE10A, Compound 112]",7.47
8,"Cc1cccc(-c2cn3c(n2)C[C@H](NC(=O)c2c(C(=O)N(C)C4CC4)cnn2C)CC3)c1 [Roche-Dataset for PDE10A, Compound 114]",8.07
9,"CC(C)Oc1cc(C(=O)Nc2ccn3nc(-c4ccccc4)nc3c2)cc(Cl)n1 [Roche-Dataset for PDE10A, Compound 116]",7.19
10,"O=C(N[C@@H]1C[C@@H](CO)N(c2ccc(Cl)cn2)C1)c1nc(C2CC2)ccc1Nc1cncnc1 [Roche-Dataset for PDE10A, Compound 118]",8.63
11,"Cc1c(Cl)cc(OCC(F)(F)F)c2nc(CCc3nc(N4CCCC4)nn3C)nn12 [Roche-Dataset for PDE10A, Compound 119]",9.30
12,"COc1c(Cl)ccc2nc(CCc3nc(-c4ccccc4)cn3C)[nH]c(=O)c12 [Roche-Dataset for PDE10A, Compound 123]",7.48
13,"Cc1nc(CCc2nc(-c3ccccc3)cn2C)nc2ccccc12 [Roche-Dataset for PDE10A, Compound 129]",8.28
14,"CN(C(=O)c1cnn(C)c1C(=O)N[C@@H]1CCn2cc(-c3ccccc3)nc2C1)C1CC1 [Roche-Dataset for PDE10A, Compound 133]",8.37
15,"Cc1c(Br)cc(C(F)(F)F)c2nc(CCc3nc(N4CCCC4)nn3C)nn12 [Roche-Dataset for PDE10A, Compound 135]",9.37
16,"CCN(C)C(=O)c1cnn(C)c1C(=O)N[C@@H]1CCn2cc(-c3cccc(OC)c3)nc2C1 [Roche-Dataset for PDE10A, Compound 136]",5.76
17,"CCN(C)C(=O)c1c(C(=O)Nc2ccn3cc(-c4ccccc4)nc3n2)cnn1C [Roche-Dataset for PDE10A, Compound 144]",5.00
18,"COCCOc1cc(Cl)c(C)n2nc(CCc3nc(N4CCCC4)nn3C)nc12 [Roche-Dataset for PDE10A, Compound 146]",9.77
19,"COCCN(C)C(=O)c1cnn(C)c1C(=O)Nc1ccn2cc(-c3ccnc(F)c3)nc2n1 [Roche-Dataset for PDE10A, Compound 147]",6.11
20,"O=C1c2ccccc2C(=O)N1CCc1nc(-c2ccccc2)cs1 [Roche-Dataset for PDE10A, Compound 150]",6.47
21,"CNC(=O)c1cc2[nH]c(-c3ccccc3)nc2cc1NC(=O)c1oc(COCc2ccccc2)nc1C [Roche-Dataset for PDE10A, Compound 152]",7.29
22,"Cc1c(Cl)cc(C(F)(F)F)c2nc(/C=C/c3nc(N4CCCC4)nn3C)nn12 [Roche-Dataset for PDE10A, Compound 154]",8.56
23,"Cc1c(Cl)cc(C(F)(F)F)c2nc(CCc3nc(N4CCCC4)nn3C)nn12 [Roche-Dataset for PDE10A, Compound 157]",8.96
24,"CCc1nc(C)c(C(=O)Nc2cc3nc(-c4ccccc4)[nH]c3cc2C(=O)NCC2(CO)COC2)o1 [Roche-Dataset for PDE10A, Compound 163]",8.14
25,"Cc1nnc2c(C(=O)NCCc3nc(-c4ccccc4)cn3C)cccn12 [Roche-Dataset for PDE10A, Compound 166]",7.02
26,"Cn1cc(-c2ccccc2)nc1CCc1nc2ccccc2c(=O)[nH]1 [Roche-Dataset for PDE10A, Compound 170]",7.22
27,"CCc1cc(C(F)(F)F)c2nc(CCc3nc(N4CCCC4)nn3C)nn2c1C [Roche-Dataset for PDE10A, Compound 171]",8.47

# Reference: BindingDB's records for doi:10.1007/s10822-022-00478-x (Roche Innovation Center Basel, F. Hoffmann-La Roche Ltd., 2022)
